# Measurements: article PMC6748410, “A phase 2 study of an oral mTORC1/mTORC2 kinase inhibitor (CC-223) for non-pancreatic neuroendocrine tumors with or without carcinoid symptoms” (PLoS ONE, 2019)
# “And” between values parts separate entries of the source, which are not always exact repeats. Identical values can stand only once. Like-named read-outs stand apart in the source and are kept apart here.
# Tests used:
# [1] = Plasma pharmacokinetics of CC-223 and metabolite M1 in patients with NET; format: in vivo, human; conditions: for CL/F / AUC / AUC(0-t) / Cmax / Vd/F: geometric mean (%CV, n); for Tmax / AUC / AUC(0-t) / Cmax / Vd/F: human, plasma; for Vd/F: read-out: Vz/F
# Description: Blood for PK analysis was drawn on day 1 pre-dose and for up to 48 hours post-dose, and then on day 15 up to 8 hours post-dose. Urine on day 1 was collected within 30 minutes prior to dosing and at intervals up to 24 hours post-dose. Samples were assayed for CC-223 and the principal active metabolite (M1) using validated chiral liquid chromatography mass spectrometry. CC-223 PK parameters were calculated using dosing and sample collection times. Non-compartmental PK analysis was performed used WinNonlin Enterprise version 5.2 Model 200 and Model 210 (Certara, Princeton, NJ).
# pAKT (mTORC2) = experiment: Stimulated blood biomarker assay in monocytes (CD14+) for pAKT (mTORC2 inhibition); format: in vivo, human; conditions: for pAKT median inhibition from baseline: 30 mg; for Blood pAKT median inhibition: 45 mg
# Description: Central laboratories conducted serial stimulated blood biomarker assays in monocytes (CD14+) for p4E-BP1 and pPKB (also known as pAKT) for assessment of mTORC1 and mTORC2 inhibition, respectively. Monthly changes from baseline for chromogranin A (CgA), and for other serum hormones if elevated, were assayed locally.
# [2] = test system: well-differentiated NET of non-pancreatic gastrointestinal or unknown origin; experiment: FDG PET SUV change from baseline to day 15 of cycle 1; format: in vivo, human
# Description: (§1) Metabolic changes were assessed by percent change in total of standardized uptake value (SUV) of 2-^18F-fluoro-2-deoxyglucose (FDG) with PET scanning from baseline to day 15 in cycle 1. Carcinoid symptoms of flushing and diarrhea were documented monthly with a non-validated symptom questionnaire that was completed at each study visit. Patients reported whether they had experienced specific events, and the severity and/or frequency of these events. Symptom improvement was defined as ≥50% reduction in frequency and/or a 1-grade reduction in severity for each from baseline.
# [3] = test system: well-differentiated NET of non-pancreatic gastrointestinal or unknown origin; experiment: Tumor response by investigator (RECIST version 1.1), PFS and OS; format: in vivo, human
# Text: Tumors were restaged by the principal investigator at each site using computed tomography (CT), positron emission tomography (PET)-CT, or magnetic resonance imaging scans after every 2 cycles through cycle 6, and every 3 cycles thereafter, using Response Evaluation Criteria In Solid Tumors (RECIST) version 1.1 criteria for response.
# This phase 1/2 study was not powered for inferential statistics and mostly descriptive statistics were used. All patients dosed with CC-223 were included in the safety analysis. The efficacy analysis included all patients completing at least one cycle of drug who had both baseline and one post-baseline tumor efficacy assessment, unless otherwise specified. Categorical baseline variables including tumor type-specific characteristics were summarized using frequency counts and percentage. Continuous demographic and baseline characteristic variables were summarized by descriptive statistics. A Wilcoxon signed rank test was used to analyse change from baseline in serum hormone levels at selected scheduled visits.
# Best overall tumor response by investigator assessment was summarized using frequency tabulation. Waterfall plots were used to show best percentage change from baseline in the sum of length (longest diameter) of target lesions.
# Relationship between PFS and NET-specific assessments such as serum hormone levels and carcinoid symptoms were investigated. The Kaplan-Meier estimate of median PFS with its two-sided 95% confidence interval [CI] was provided for each baseline category of the selected biomarkers. Kaplan-Meier plots of PFS were created by category. The raw P value of the log rank test comparing survival distribution of PFS between categories was also provided.
# [4] = test system: carcinoid symptoms of flushing and diarrhea; experiment: Carcinoid symptom questionnaire (flushing, diarrhea); format: in vivo, human
# Description: as §1
# [5] = 28-day GLP toxicology study, rat; format: in vivo
# Description: (§2) A dose of 7.5 mg/day is proposed as the starting dose in this protocol. This dose is based on the recommendations in the March 2010 FDA Guidance for Industry entitled, “S9 Nonclinical Evaluation for Anticancer Pharmaceuticals,” where a start dose for first administration in humans should be either one-tenth the STD10 in rodents, or one-sixth of the HNSTD if the nonrodent is the most appropriate species. The conversion factors from the July 2005 FDA Guidance for Industry entitled, “Estimating the Maximum Safe Starting Dose in Initial Clinical Trials for Therapeutics in Adult Healthy Volunteers,” were used to convert the animal dose to the HED. The dose was converted to milligrams based on a 60-kg human body weight.
# (§3) Species Animal Dose HED (mg/kg) HED (mg) Safety Factor Start Dose (mg) […]
# (§4) Since the dog was identified as the most sensitive species in the 28-day GLP toxicology studies, the start dose for the study would be 8.2 mg/day. Based on available dosage strengths of the IP, a dose of 7.5 mg/day of CC-223 is deemed to be an acceptable starting dose for this initial trial in […]
# (§5) Part B will consist of approximately 230 patients with selected tumor types to further assess the safety profile and provide preliminary efficacy information. […]
# [6] = 28-day GLP toxicology study, dog; format: in vivo
# Description: as §2, §3, §4, §5
# [7] = test system: mTORC1 and mTORC2 biomarkers; experiment: Target biomarker inhibition at 15 mg dose level (predicted, not tested); format: in vivo, human; conditions: 15 mg dose level
# [8] = set-up: method as in doi:10.1200/jco.2013.31.15_suppl.2606; conditions: non-small cell lung cancer and hepatocellular carcinoma cohorts dosed at 45 mg; cited from earlier work
# [9] = po, 30 mg/day, CC-223 30 mg/day oral, Day 1
# [10] = po, 30 mg/day, CC-223 30 mg/day oral, Day 15, n = 1
# [11] = po, 45 mg/day, CC-223 45 mg/day oral, Day 1
compound,measurement,setting,value
CO[C@H]1CC[C@H](N2C(=O)CNc3ncc(-c4ccc(C(C)(C)O)nc4)nc32)CC1 [CC-223],CL/F,"[1]; CC-223 30 mg/day oral, Day 1","34.0 (34.2, n = 3) L/h"
same,CL/F,"[1]; CC-223 45 mg/day oral, Day 1","19.8 (20.1, n = 2) L/h"
same,Tmax,"[1]; oral, regardless of starting dose, read-out: Median Tmax",1.5 to 3 h
same,AUC,[1]; [9],819 ng·h/mL
same,AUC(0-t),[1]; [9],840 ng·h/mL
same,Cmax,[1]; [9],133 ng/mL
same,AUC,[1]; [10],776 ng·h/mL
same,AUC(0-t),[1]; [10],776 ng·h/mL
same,Cmax,[1]; [10],154 ng/mL
same,Tmax,"[1]; po, 30 mg/day, median (min, max, n), CC-223 30 mg/day oral, Day 1, read-out: Tmax",1.7 h
same,Tmax,"[1]; po, 30 mg/day, median (min, max, n), CC-223 30 mg/day oral, Day 15, read-out: Tmax",1.5 h
same,AUC(0-t),[1]; [11],1800 ng·h/mL
same,Cmax,[1]; [11],347 ng/mL
same,AUC,"[1]; po, 45 mg/day, CC-223 45 mg/day oral, Day 1, n = 1",1940 ng·h/mL
same,Tmax,"[1]; po, 45 mg/day, median (min, max, n), CC-223 45 mg/day oral, Day 1, read-out: Tmax",1.52 h
same,Vd/F,"[1]; CC-223 30 mg/day oral, Day 1",290 L
same,Vd/F,"[1]; CC-223 45 mg/day oral, Day 1",125 L
same,pAKT median inhibition from baseline,pAKT (mTORC2); after the first dose,59%
same,pAKT median inhibition from baseline,pAKT (mTORC2); day 15 after multiple doses,79%
same,Blood pAKT median inhibition,pAKT (mTORC2); 1.5 hours after a single dose (day 1),83%
same,Blood pAKT median inhibition,pAKT (mTORC2); after multiple doses (day 15),76%
same,pAKT median biomarker inhibition relative to baseline,"pAKT (mTORC2); across both dose level cohorts (45 mg or 30 mg), 1.5 hours after multiple dosing on day 15",> 70%
same,Patients with at least a 25% reduction in SUV,[2]; 18 patients,38.3%
same,Patients with at least a 15% reduction in FDG uptake,[2]; 21 patients,44.7%
same,Mean percent decrease from baseline to day 15 in [18F]-FDG PET SUV,"[2]; 31 patients, standard deviation 35.2%, P<0.0001",32.0%
same,Progressive disease (PD),"[3]; 1 of 41 evaluable patients, investigator assessment",2.4%
same,Partial response (PR),"[3]; 3 of 41 evaluable patients, investigator assessment",7% and 7.3%
same,Objective response rate (CR+PR),"[3]; 41 evaluable patients, 95% CI 1.5–19.9%",7.3%
same,Disease control rate (CR+PR+SD),"[3]; 41 evaluable patients, 95% CI 76.9–97.3%",90% and 90.2%
same,Complete response (CR),"[3]; 41 evaluable patients, investigator assessment",no patient
same,Patients with tumor shrinkage of any magnitude relative to baseline,[3]; 95% CI 57.1–85.8%,73.2%
same,Median PFS in patients without carcinoid symptom improvement,"[3]; ad hoc exploratory analysis, 95% CI 35.6–104.4",48.1 weeks and 48 weeks
same,Median PFS in patients with carcinoid symptom improvement,"[3]; ad hoc exploratory analysis, 95% CI 72.6–not estimable",108.4 weeks and 108 weeks
same,PFS rate,[3]; at 6 months,85%
same,PFS rate,[3]; at 10 months,64%
same,OS rate,[3]; at 48 weeks,0.97
same,Duration of SD (min–max),[3]; in vivo,50 to 1519 days
same,Median duration of SD,[3]; in vivo,297 days
same,Patients with duration of SD longer than a year,[3]; in vivo,17 patients
same,Median OS,[3]; treated population,not assessable
same,Median progression-free survival (PFS),"[3]; treated population, 95% CI 10.4–28.5 months",19.5 months
same,Symptom reduction at any time during the study: both flushing and diarrhea,[4]; 5 of 13 affected patients,39%
same,Symptom reduction at any time during the study: flushing,[4]; 8 of 16 affected patients,50%
same,Symptom reduction at any time during the study: diarrhea,[4]; 9 of 22 affected patients,41%
same,HED (human equivalent dose) of STD10,[5]; 60-kg human body weight,96 mg
same,HED (human equivalent dose) of STD10,[5]; FDA conversion factors,1.6 mg/kg
same,HED (human equivalent dose) of HNSTD,[6]; 60-kg human body weight,49 mg
same,HED (human equivalent dose) of HNSTD,[6]; FDA conversion factors,0.81 mg/kg
same,Target biomarker inhibition,[7],modest
same,Patients with dose reductions,[8],> 50%
